Here are results for 16 compounds from US12466827B2, “1,3,4-oxadiazole derivative compounds as histone deacetylase 6 inhibitor, and the pharmaceutical composition comprising the same” (CHONG KUN DANG PHARMACEUTICAL CORP., priority 2020, dated 2025).

SMILES strings stand for the structures.

The target in assay [1] is T1, human recombinant HDAC1 (Homo sapiens, UniProt Q13547).
T1 construct: purchased Enzo Life Sciences, Inc. BML-SE456
The experiment in a line: In vitro HDAC enzyme activity inhibition assay (HDAC1). The format is biochemical. Conditions: Fluor de Lys-SIRT1 substrate 10 μM, 30° C., 60 minutes, fluorescence. An outline of the steps: (§1)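 Fluorimetric deacetylase kit: human recombinant HDAC1 or HDAC6 (0.3 μg) with 10 μM Fluor de Lys-SIRT1 substrate and 5-fold diluted compounds, 60 min at 30° C. Developer added for 30 min, fluorescence read at Ex 360/Em 460, IC50 calculated.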

Assay [2] concerns the target T2, human recombinant HDAC6 (Homo sapiens, UniProt Q9UBN7).
T2 construct: purchased Calbiochem Inc. 382180
T2 sequence (Q9UBN7 1-1215): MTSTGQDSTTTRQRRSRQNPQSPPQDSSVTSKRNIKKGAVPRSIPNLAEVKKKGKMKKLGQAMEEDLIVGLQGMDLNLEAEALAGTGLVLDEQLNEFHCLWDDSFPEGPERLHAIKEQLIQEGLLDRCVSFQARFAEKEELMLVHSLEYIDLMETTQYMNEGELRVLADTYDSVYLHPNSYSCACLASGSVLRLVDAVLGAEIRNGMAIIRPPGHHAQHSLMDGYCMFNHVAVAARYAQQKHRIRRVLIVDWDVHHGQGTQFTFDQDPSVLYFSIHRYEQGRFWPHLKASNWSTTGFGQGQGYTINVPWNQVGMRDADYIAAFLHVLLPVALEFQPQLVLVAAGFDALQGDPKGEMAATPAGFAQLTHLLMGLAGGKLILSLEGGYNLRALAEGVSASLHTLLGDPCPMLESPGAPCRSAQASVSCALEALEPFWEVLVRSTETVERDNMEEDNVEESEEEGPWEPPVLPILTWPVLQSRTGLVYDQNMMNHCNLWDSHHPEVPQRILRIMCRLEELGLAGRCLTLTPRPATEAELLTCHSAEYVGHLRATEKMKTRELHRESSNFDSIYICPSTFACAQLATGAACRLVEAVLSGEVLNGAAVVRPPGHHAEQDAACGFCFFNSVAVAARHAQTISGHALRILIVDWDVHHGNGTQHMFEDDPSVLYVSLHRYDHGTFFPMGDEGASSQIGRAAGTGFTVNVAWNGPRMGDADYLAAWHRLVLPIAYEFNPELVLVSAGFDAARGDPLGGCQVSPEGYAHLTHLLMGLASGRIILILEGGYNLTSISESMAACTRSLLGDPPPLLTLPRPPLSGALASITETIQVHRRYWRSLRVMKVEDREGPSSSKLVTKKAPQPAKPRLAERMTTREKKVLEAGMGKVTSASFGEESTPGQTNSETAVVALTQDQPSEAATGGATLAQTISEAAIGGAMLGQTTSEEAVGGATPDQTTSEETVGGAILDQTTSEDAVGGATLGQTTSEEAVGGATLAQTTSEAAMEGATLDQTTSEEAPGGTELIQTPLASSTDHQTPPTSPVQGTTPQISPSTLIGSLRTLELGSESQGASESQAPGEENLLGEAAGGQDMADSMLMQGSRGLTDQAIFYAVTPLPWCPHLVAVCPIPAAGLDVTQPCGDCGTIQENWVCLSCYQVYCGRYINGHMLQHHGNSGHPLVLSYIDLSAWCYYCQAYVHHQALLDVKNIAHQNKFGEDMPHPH
The experiment in a line: In vitro HDAC enzyme activity inhibition assay (HDAC6). The format is biochemical. The conditions noted are these: for HDAC6 selectivity (fold): HDAC6 over HDAC1; for IC50: same protocol as the HDAC1 test, human recombinant HDAC6 (Calbiochem). The procedure, abridged: as §1

T1 sequence (Q13547 whole entry): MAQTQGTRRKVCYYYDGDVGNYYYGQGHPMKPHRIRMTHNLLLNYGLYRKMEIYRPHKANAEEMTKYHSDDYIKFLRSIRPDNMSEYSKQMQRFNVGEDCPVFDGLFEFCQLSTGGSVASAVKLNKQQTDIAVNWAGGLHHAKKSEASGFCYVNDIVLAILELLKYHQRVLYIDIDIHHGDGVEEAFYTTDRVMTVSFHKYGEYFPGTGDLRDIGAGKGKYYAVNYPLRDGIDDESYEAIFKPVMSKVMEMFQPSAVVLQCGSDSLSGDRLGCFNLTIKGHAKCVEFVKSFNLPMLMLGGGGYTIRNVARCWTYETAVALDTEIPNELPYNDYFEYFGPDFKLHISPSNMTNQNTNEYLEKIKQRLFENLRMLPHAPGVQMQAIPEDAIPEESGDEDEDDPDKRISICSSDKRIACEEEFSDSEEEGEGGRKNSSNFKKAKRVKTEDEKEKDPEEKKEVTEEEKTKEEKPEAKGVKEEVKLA

In general, IC50 refers to the concentration at which inhibition is half-maximal. As for `O=S(=O)(N1CCN(C2CCCCC2)CC1)N(Cc1cn2ccc(-c3nnc(C(F)F)o3)cc2n1)c1cccc(F)c1` [Compound 4303, 4-cyclohexyl-N-((7-(5-(difluoromethyl)-1,3,4-oxadiazol-2-yl)imidazo[1,2-a]pyridin-2-yl)methyl)-N-(3-fluorophenyl)piperazine-1-sulfonamide], in assay [1], the IC50 is above 50 µM. In assay [2], the “HDAC6 selectivity (fold)” value is reported as 299 fold and the IC50 stood at 167 nM.

On to `O=S(=O)(N1CCN(C2CCOCC2)CC1)N(Cc1cn2ccc(-c3nnc(C(F)F)o3)cc2n1)c1cccc(F)c1` [Compound 4304, N-((7-(5-(difluoromethyl)-1,3,4-oxadiazol-2-yl)imidazo[1,2-a]pyridin-2-yl)methyl)-N-(3-fluorophenyl)-4-(tetrahydro-2H-pyran-4-yl)piperazine-1-sulfonamide], for which the IC50 in assay [1] was above 50 µM. Moreover, in assay [2], the “HDAC6 selectivity (fold)” value was found to be 832 fold and the IC50 stood at 60.1 nM.

As to `O=S(=O)(N1CCN(C2CCC(F)(F)CC2)CC1)N(Cc1cn2ccc(-c3nnc(C(F)F)o3)cc2n1)c1cccc(F)c1` [Compound 4305, 4-(4,4-difluorocyclohexyl)-N-((7-(5-(difluoromethyl)-1,3,4-oxadiazol-2-yl)imidazo[1,2-a]pyridin-2-yl)methyl)-N-(3-fluorophenyl)piperazine-1-sulfonamide], the half-maximal inhibitory concentration (IC50) in assay [1] was above 50 µM. In addition, in assay [2], the “HDAC6 selectivity (fold)” value came out at 437 fold and the IC50 stood at 114 nM.

As for `CC(=O)N1CCN(S(=O)(=O)N(Cc2cn3ccc(-c4nnc(C(F)F)o4)cc3n2)c2cccc(F)c2)CC1` [Compound 4306, 4-acetyl-N-((7-(5-(difluoromethyl)-1,3,4-oxadiazol-2-yl)imidazo[1,2-a]pyridin-2-yl)methyl)-N-(3-fluorophenyl)piperazine-1-sulfonamide], the concentration for half-maximal inhibition (IC50) in assay [1] was above 50 µM. In assay [2], the “HDAC6 selectivity (fold)” value came to 617 fold and the IC50 worked out at 81 nM.

With `CCC(=O)N1CCN(S(=O)(=O)N(Cc2cn3ccc(-c4nnc(C(F)F)o4)cc3n2)c2cccc(F)c2)CC1` [Compound 4307, N-((7-(5-(difluoromethyl)-1,3,4-oxadiazol-2-yl)imidazo[1,2-a]pyridin-2-yl)methyl)-N-(3-fluorophenyl)-4-propionylpiperazine-1-sulfonamide], the half-maximal inhibitory concentration (IC50) in assay [1] is above 50 µM. Also, in assay [2], the “HDAC6 selectivity (fold)” value is 365 fold and the IC50 came to 137 nM.

For `O=C(CO)N1CCN(S(=O)(=O)N(Cc2cn3ccc(-c4nnc(C(F)F)o4)cc3n2)c2cccc(F)c2)CC1` [Compound 4308, N-((7-(5-(difluoromethyl)-1,3,4-oxadiazol-2-yl)imidazo[1,2-a]pyridin-2-yl)methyl)-N-(3-fluorophenyl)-4-(2-hydroxyacetyl)piperazine-1-sulfonamide], the results for the IC50 in assay [1] and in assay [2] were above 50 µM and 69.1 nM, respectively. In assay [2], the “HDAC6 selectivity (fold)” value is listed as 724 fold.

`O=C(C1CCC1)N1CCN(S(=O)(=O)N(Cc2cn3ccc(-c4nnc(C(F)F)o4)cc3n2)c2cccc(F)c2)CC1` [Compound 4309, 4-(cyclobutanecarbonyl)-N-((7-(5-(difluoromethyl)-1,3,4-oxadiazol-2-yl)imidazo[1,2-a]pyridine-2-yl)methyl)-N-(3-fluorophenyl)piperazine-1-sulfonamide]: the IC50 in assay [1] was above 50 µM; in assay [2], 114 nM. Further, the “HDAC6 selectivity (fold)” value in assay [2] came out at 437 fold.

On to `O=C(C1COC1)N1CCN(S(=O)(=O)N(Cc2cn3ccc(-c4nnc(C(F)F)o4)cc3n2)c2cccc(F)c2)CC1` [Compound 4310, N-((7-(5-(difluoromethyl)-1,3,4-oxadiazol-2-yl)imidazo[1,2-a]pyridin-2-yl)methyl)-N-(3-fluorophenyl)-4-(oxetane-3-carbonyl)piperazine-1-sulfonamide], for which the concentration for half-maximal inhibition (IC50) in assay [1] is above 50 µM. For the same compound, in assay [2], the “HDAC6 selectivity (fold)” value turned out to be 681 fold and the IC50 stood at 73.4 nM.

As for `O=C(N1CCN(S(=O)(=O)N(Cc2cn3ccc(-c4nnc(C(F)F)o4)cc3n2)c2cccc(F)c2)CC1)C(F)(F)F` [Compound 4311, N-((7-(5-(difluoromethyl)-1,3,4-oxadiazol-2-yl)imidazo[1,2-a]pyridin-2-yl)methyl)-N-(3-fluorophenyl)-4-(2,2,2-trifluoroacetyl)piperazine-1-sulfonamide], the 50% inhibitory concentration (IC50) in assay [1] is above 50 µM. Also, in assay [2], the “HDAC6 selectivity (fold)” value came out at 510 fold and the IC50 was 98 nM.

Regarding `CS(=O)(=O)N1CCN(S(=O)(=O)N(Cc2cn3ccc(-c4nnc(C(F)F)o4)cc3n2)c2cccc(F)c2)CC1` [Compound 4312, N-((7-(5-(difluoromethyl)-1,3,4-oxadiazol-2-yl)imidazo[1,2-a]pyridin-2-yl)methyl)-N-(3-fluorophenyl)-4-(methylsulfonyl)piperazine-1-sulfonamide], the IC50 in assay [1] is above 50 µM. Moreover, in assay [2], the “HDAC6 selectivity (fold)” value was 530 fold and the IC50 was 94.3 nM.

Take `COC(=O)N1CCN(S(=O)(=O)N(Cc2cn3ccc(-c4nnc(C(F)F)o4)cc3n2)c2cccc(F)c2)CC1` [Compound 4313, methyl 4-(N-((7-(5-(difluoromethyl)-1,3,4-oxadiazol-2-yl)imidazo[1,2-a]pyridin-2-yl)methyl)-N-(3-fluorophenyl)sulfamoyl)piperazine-1-carboxylate]: the 50% inhibitory concentration (IC50) in assay [1] is above 50 µM. Further, in assay [2], the “HDAC6 selectivity (fold)” value was 371 fold and the IC50 is 135 nM.

For the compound `CN(C)C(=O)N1CCN(S(=O)(=O)N(Cc2cn3ccc(-c4nnc(C(F)F)o4)cc3n2)c2cccc(F)c2)CC1` [Compound 4314, 4—(N-((7-(5-(difluoromethyl)-1,3,4-oxadiazol-2-yl)imidazo[1,2-a]pyridin-2-yl)methyl)-N-(3-fluorophenyl)sulfamoyl)-N, N-dimethylpiperazine-1-carboxamide], the IC50 in assay [1] is above 50 µM. In addition, in assay [2], the “HDAC6 selectivity (fold)” value was found to be 462 fold and the IC50 turned out to be 108 nM.

Take `O=S(=O)(N1CCN(c2ncccn2)CC1)N(Cc1cn2ccc(-c3nnc(C(F)F)o3)cc2n1)c1cccc(F)c1` [Compound 4315, N-((7-(5-(difluoromethyl)-1,3,4-oxadiazol-2-yl)imidazo[1,2-a]pyridin-2-yl)methyl)-N-(3-fluorophenyl)-4-(pyrimidin-2-yl)piperazine-1-sulfonamide]: the results for the IC50 in assay [1] and in assay [2] were above 50 µM and 162 nM, respectively. Further, the “HDAC6 selectivity (fold)” value in assay [2] worked out at 309 fold.

For the compound `O=S(=O)(C1CCN(C2CC3(CCC3)C2)CC1)N(Cc1cn2ccc(-c3nnc(C(F)F)o3)cc2n1)c1cccc(F)c1` [Compound 4616, N-((7-(5-(difluoromethyl)-1,3,4-oxadiazol-2-yl)imidazo[1,2-a]pyridin-2-yl)methyl)-N-(3-fluorophenyl)-1-(spiro[3.3]heptan-2-yl)piperidine-4-sulfonamide], the 50% inhibitory concentration (IC50) was above 50 µM in assay [1] and 205 nM in assay [2]. Also, in assay [2], the “HDAC6 selectivity (fold)” value stood at 243 fold.

On to `O=S(=O)(C1CCN(C2CC3(COC3)C2)CC1)N(Cc1cn2ccc(-c3nnc(C(F)F)o3)cc2n1)c1cccc(F)c1` [Compound 4617, N-((7-(5-(difluoromethyl)-1,3,4-oxadiazol-2-yl)imidazo[1,2-a]pyridin-2-yl)methyl)-N-(3-fluorophenyl)-1-(2-oxaspiro[3.3]heptan-6-yl)piperidine-4-sulfonamide], for which the 50% inhibitory concentration (IC50) in assay [1] was above 50 µM. Besides, in assay [2], the “HDAC6 selectivity (fold)” value is on record as 666 fold and the IC50 was 75 nM.

With `O=S(=O)(N1CCN(C2CC3(CCC3)C2)CC1)N(Cc1cn2ccc(-c3nnc(C(F)F)o3)cc2n1)c1cccc(F)c1` [Compound 4622, N-((7-(5-(difluoromethyl)-1,3,4-oxadiazol-2-yl)imidazo[1,2-a]pyridin-2-yl)methyl)-N-(3-fluorophenyl)-4-(spiro[3.3]heptan-2-yl)piperazine-1-sulfonamide], the IC50 in assay [1] is above 50 µM; in assay [2], 182 nM. The “HDAC6 selectivity (fold)” value in assay [2] came to 274 fold.
